According to patent publication US20110086063A1, “VACCINES FOR PREVENTION AND TREATMENT OF ADDICTION” (priority 2008, published 2011):
Where two headings read alike, the source gives them in different places.

Assays:
female rhesus monkeys = assay: Cocaine and candy self-administration choice in female rhesus monkeys; type: in vivo; conditions: representative female monkey; either dose of cocaine available (FIG. 5)
Excerpt: FIG. 5 is a bar graph depicting cocaine and candy self-administration in female rhesus monkeys. The data is presented as a function of cocaine dose available.
A non-human primate model of intravenous cocaine self-administration will be used to determine if vaccination with Ad-cocaine decreases drug taking, which will likely provide the best predictor of clinical efficacy. To control for nonselective effects, monkeys will be trained to self-administer cocaine and candy, using a choice procedure. If the vaccine is effective at blocking the effects of cocaine, monkeys should decrease the number of cocaine choices self-administered and correspondingly increase the number of candy choices. A non-specific effect would be evidenced by a decrease in both cocaine and candy choices. After all monkeys have been trained to enter the primate chair and respond on the levers for candy, they will have vascular access port surgery (VAP). For self-administration sessions, monkeys will be placed into custom-built primate chairs, moved to the workstation, and connected to the infusion apparatus. Sessions will be conducted five days per week. Monkeys will initially be trained to self-administer 0.1 mg/kg cocaine per infusion. Once responding is stable, the cocaine dose available will be 0.05 mg/kg/infusion. […]

[1] = target: T1, dopamine transporters (DAT) (Macaca mulatta, UniProt Q7JHP9); conditions: rhesus monkeys, cited from earlier work
T1 construct: In rhesus monkeys, doses of 0.1 and 1.0 mg/kg cocaine occupy 53% and 87% of the DAT; host or cells: rhesus monkey brain, in vivo

[2] = target: T2, dopamine transporters (DAT) (Homo sapiens, UniProt Q01959); conditions: human cocaine abusers; cited from earlier work
T2 construct: In human cocaine abusers, at least 47% of the DAT needs to be occupied; host or cells: human brain, in vivo

[3] = Stability of cocaine hapten

T1 sequence (Q7JHP9 1-620): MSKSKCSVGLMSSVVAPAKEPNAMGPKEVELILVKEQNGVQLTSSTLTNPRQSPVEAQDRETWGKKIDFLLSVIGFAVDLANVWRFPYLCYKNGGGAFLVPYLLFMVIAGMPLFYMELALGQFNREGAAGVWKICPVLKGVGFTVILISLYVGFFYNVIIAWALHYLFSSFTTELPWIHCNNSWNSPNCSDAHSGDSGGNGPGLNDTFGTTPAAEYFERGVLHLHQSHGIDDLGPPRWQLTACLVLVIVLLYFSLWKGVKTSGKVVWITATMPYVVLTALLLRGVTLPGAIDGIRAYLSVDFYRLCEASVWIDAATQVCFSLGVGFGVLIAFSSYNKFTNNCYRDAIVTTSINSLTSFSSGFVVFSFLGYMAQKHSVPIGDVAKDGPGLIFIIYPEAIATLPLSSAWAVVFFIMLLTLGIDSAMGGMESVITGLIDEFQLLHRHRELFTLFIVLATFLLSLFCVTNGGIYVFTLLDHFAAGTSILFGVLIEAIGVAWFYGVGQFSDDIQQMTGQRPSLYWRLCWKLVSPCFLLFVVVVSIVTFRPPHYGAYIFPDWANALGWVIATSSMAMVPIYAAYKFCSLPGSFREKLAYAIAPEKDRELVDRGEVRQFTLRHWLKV
T2 sequence (Q01959 whole entry): as the sequence (Q7JHP9 1-620) above, with M24V, V137I, S194P, G198S, N200D, G201S, P202S counted along it

SMILES	choice between i.v. cocaine and candy (female rhesus monkeys)	occupancy of the DAT ([1]; 0.1 mg/kg cocaine) [%]	occupancy of the DAT ([1]; 1.0 mg/kg cocaine) [%]	DAT occupancy needed to perceive the subjective effects of cocaine [2]	stability relative to GNC [3]
COC(=O)[C@@H]1C2CCC(C[C@@H]1OC(=O)c1ccccc1)N2C (some centres unmarked) [cocaine]	exclusively chose cocaine over candy	53	87	at least 47%	–
CN1C2CCC1[C@@H](C(=O)NCCCCCC(=O)O)[C@@H](OC(=O)c1ccccc1)C2 (some centres unmarked) [GNE]	–	–	–	–	more stable than GNC
